The nature of data set [1]: Polymorph screening, physical stability of crystalline embodiments of compound Ex. 1. Format: physicochemical. To be noted: for physical stability of solid form after AAC: 2 days at 40° C./70% RH, HT-XRPD; for physical stability of solid form: ambient conditions; for physical stability of solid form in climate chamber: four days, HR-XRPD. Here is the method:
Long term slurry experiments were performed by suspending compound embodiment 1s in twenty neat solvents and stirred at room temperature for two weeks and at 50° C. for one week. Upon completion of the equilibration time, the residual solids were separated from the mother liquors. The solids were dried under ambient conditions and dried under vacuum (5 mBar) before being analyzed by HT-XRPD. Subsequently, the solids were exposed to accelerated aging conditions (40° C./70% relative humidity) for two days and again analyzed by HT-XRPD.
Embodiment 1s converted to hydrated embodiment 10 when it was exposed to 100% RH at 25° C. […] This behavior is attributable to an unequally strong binding of all the hydration/solvation molecules. In this case, embodiment 10 would have a less strongly bound second water molecule that would be lost under ambient conditions. More precisely, the physical stability of embodiment 1s was investigated in climate chambers by exposing a 20 mg sample of such embodiment to 40° C. and 70% relative humidity for four days, and another 20 mg sample of the same embodiment was exposed also for four days to 25° C. and 100% relative humidity. After four days, the various solid samples were analyzed by HR-XRPD, the crystal cell parameters were determined and the diffractograms were indexed. From bottom to top, the first diffractogram in FIG. 6 corresponds to embodiment 1s as starting material, and the second corresponds to the same form after a 4-day exposure to 40° C. and 70% relative humidity, noted as “1s 70 RH” in the same figure. […] Indexing for such form was not possible due to the small amount in which it was present. The third diffractogram corresponds to embodiment 1s after a 4-day exposure to 25° C. and 100% relative humidity, noted as “10” in the same figure. […] Upon dehydration, both embodiments 1s and 10 re-crystallized to the anhydrous form with a melting point of 148° C.
The mother liquors of the solvent equilibration experiments performed at 50° C. were filtered at 50° C. to remove any particulate matter. The suspensions at 50° C. were filtered using 0.2 μm PTFE filters, and the solutions were placed at 5° C. and aged for 72 hours. When solids had precipitated during aging these solids were separated from the liquid, dried under ambient conditions and under vacuum, and analyzed by HT-XRPD. The remaining mother liquors were allowed to slowly evaporate and the remaining solids were analyzed by HT-XRPD. The samples in which no precipitation occurred were placed under vacuum and the dried solids were analyzed by HT-XRPD. All the solids were then exposed to AAC (2 days at 40° C./70% RH) and re-analyzed by HT-XRPD.
The cooling/evaporative crystallization experiments at μL scale were performed in a 96-well plate, using 12 neat solvents and 12 solvent mixtures and applying four temperature profiles. In each well approximately 4 mg of embodiment 1s was solid dosed. Subsequently, the crystallization solvents (80 μL) and solvent mixtures were added to reach a concentration of 50 mg/mL, and the plate, with each well individually sealed, to subsequently undergo one of the four temperature profiles. Upon completion of the temperature profile the solvents were allowed to evaporate at low ambient pressure (24 hours) and the remaining solids were analyzed by HT-XRPD before and after exposure to AAC for 2 days (40° C./70% RH).
The cooling crystallization experiments with hot filtration were performed from supersaturated solutions of compound Ex. 1 prepared at 50° C. in different solvent mixtures. The hot filtrated solutions underwent a 48-hour cooling profile. The vials in which solids had precipitated after the temperature profile were centrifuged and the solids were separated from the liquid and analyzed by HT-XRPD (after drying under vacuum). If no solids had precipitated the solutions were evaporated under vacuum and the solids analyzed by HT-XRPD. […]

A short description of data set [2]: In vivo oral (p.o.) dosing, plasma and colon concentrations (Protocols 1 and 2). The arrangement: species or system female C57BL/6 mice. The settings on record: mice, 25 mg/kg p.o. Here is the method: These protocols are described below under the heading In vivo Studies. Three non-fasted female C57BL/6 mice were orally administered test compound at a dose of 25 mg/kg p.o. as a solution in 20% hydroxypropyl-beta-cyclodextrin (HPβCD) at a dose volume of 5 mL/kg. Blood samples were collected at 0.5, 2, and 4 h post dose via retro-orbital bleed or venipuncture of the dorsal metatarsal vein. Blood samples were collected into tubes containing anticoagulant (Heparin-Na) and placed on wet ice. […] Colon samples were collected at 4 h post dose. […] The colon was further washed by putting it in 5 mL of saline and shaken for 5 seconds. The colon sample was then patted dry, weighed, and homogenized as 1 part tissue (g) to 4 parts HPLC grade water (mL). Concentrations of the compound in plasma and colon homogenate were determined using a qualified liquid chromatography-triple quadrupole mass spectrometry (LC-MS/MS) method. […] Three non-fasted female C57BL/6 mice were orally administered test compound at a dose of 25 mg/kg p.o. as a solution in 20% HPβCD at a dose volume of 5 mL/kg. Blood samples were collected at 0.5, 2, and 4 h post dose via retro-orbital bleed or dorsal metatarsal vein. Blood samples were collected into tubes containing anticoagulant (Heparin-Na) and placed on wet ice. […] Colon samples were collected at 4 h post dose. […] The colon was further washed by putting it in 5 mL of saline and shaken for 5 seconds. The colon sample was then patted dry, weighed, and homogenized as 1 part tissue (g) to 4 parts HPLC grade water (mL). Concentrations of the compound in plasma and colon homogenate were determined using a qualified liquid chromatography-triple quadrupole mass spectrometry (LC-MS/MS) method.

The target of the next data set is Tyk2-JH1JH2 (Homo sapiens (Human), UniProt P29597, C1142A/C936A). Briefly: Enzymatic inhibition assay (HTMS). The format is biochemical. The settings on record: read-out: Tyk2_I_JH1JH2 IC50. An excerpt: (§1) JAK1-JH1JH2 (574-1154 with a His-GST Tag and a C-terminal tev (ENLYFQ-G) cleavage site), JAK3-JH1JH2 (512-1124 with a GST Tag and a C-terminal tev (ENLYFQ-G) cleavage site), and Tyk2-JH1JH2 (8H_tev_580-1182-C936A-C1142A with a C-terminal tev (ENLYFQ-G) cleavage site) were purified internally. […] LC/MS grade water and acetonitrile (ACN), were purchased from HoneyWell, Burdick & Jackson (Muskegon, Mich., USA). Dimethylsulfoxide 99.8% (DMSO) and trifluoroacetic acid 99.5% (TFA) were purchased from EMD Chemical (Gibbstown, N.J., USA). Adenosine triphosphate (ATP), 4-morpholinepropanesulfonic acid (MOPS), magnesium chloride (MgCl2), ethylenediaminetetraacetic acid (EDTA), dithiothreitol (DTT), formic acid>95% (FA) and Tween-20 were purchased from Sigma (St Louis, Mo., USA). 384-well polypropylene plates, Cat#781280 were purchased from Greiner (Monroe, N.C.), RapidFire™ cartridge A C4 Column (Agilent Technologies, Santa Clara, Calif.).
Tyk2-JH1JH2, sequence (P29597 580-1182 C936A/C1142A): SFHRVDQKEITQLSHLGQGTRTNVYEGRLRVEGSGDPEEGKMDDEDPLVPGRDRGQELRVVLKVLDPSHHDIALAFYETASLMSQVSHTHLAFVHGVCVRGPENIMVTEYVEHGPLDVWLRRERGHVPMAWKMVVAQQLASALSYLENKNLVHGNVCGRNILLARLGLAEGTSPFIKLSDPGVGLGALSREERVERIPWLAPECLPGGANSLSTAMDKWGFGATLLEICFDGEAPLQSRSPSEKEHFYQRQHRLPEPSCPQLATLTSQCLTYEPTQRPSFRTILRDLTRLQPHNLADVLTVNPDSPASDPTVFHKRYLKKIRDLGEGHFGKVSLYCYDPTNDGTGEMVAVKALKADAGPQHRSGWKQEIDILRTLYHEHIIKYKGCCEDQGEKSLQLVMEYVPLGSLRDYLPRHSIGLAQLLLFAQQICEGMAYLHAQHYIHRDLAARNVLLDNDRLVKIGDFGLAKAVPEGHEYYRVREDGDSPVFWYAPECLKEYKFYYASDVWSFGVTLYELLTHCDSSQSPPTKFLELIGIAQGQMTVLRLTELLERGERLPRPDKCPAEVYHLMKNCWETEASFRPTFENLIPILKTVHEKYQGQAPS
(§2) The HTMS experiments were performed in positive ionization mode on a RapidFire 300 instrument (Agilent Technologies, Santa Clara, Calif.), coupled with an ABSiex QTrap 4000 system with an Electrospray Ionization source (RF-MS) (Concord, ON, Canada). […] The entire system was operated using the RapidFire software interfaced with Analyst software for the mass spectrometer.
(§3) 11-point dosing series were made for each compound by serially diluting 1:3 or 1:4 in DMSO, with point 12 being a DMSO control. From the serial dilution plates, sample was transferred to a 384 wells assay plate (#781280, Greiner, Monroe, N.C.) using Labcyte Echo (Sunnyvale, Calif.), or Biosero ATS (San Diego, Calif.). The compounds were tested in duplicate. Column 12 was used for positive controls, and column 24 contained negative controls with no enzyme added. A compound from our internal collection, with inhibitory activity for JAK isoforms, was used as a reference compound. The final concentration of DMSO was ≤0.25% in a 20 μL reaction. The enzyme reaction was initiated by the addition of 10 μL of enzyme and ATP mixture to 10 μL of substrate solution prepared in reaction buffer (50 mM MOPS pH 7.5, 10 mM MgCl2, 1 mM EDTA, 2 mM DTT, 0.002% Tween-20). The Tyk2 enzyme was pre-incubated with 2 mM ATP for 30 min prior to the reaction initiation. Immediately after the addition of the enzyme to the reaction mixture, the plate was centrifuged at 1000 rpm for 1 minute and incubated at 25° C. for 45 minutes for JAK3 and 90 minutes for JAK1, JAK2 and Tyk2. The reaction was quenched by the addition of 20 μL of 0.5% TFA containing 0.15 μM of internal standard peptide using Multidrop Combi reagent dispenser (Thermo Scientific, Waltham, Mass.). […] After the quench, the assay plate was centrifuged at 3000 rpm for 3 minutes and sealed with pierceable aluminum foil (Cat#06644-001, Agilent) using a PlateLoc (Agilent Technologies, Santa Clara, Calif.). The plates then were transferred on to the RapidFire for the MS analysis. Compound inhibition was assessed by a decrease of the phosphorylated product levels in sample wells compared to the non-inhibited enzyme reaction.
(§4) The sample analysis on the RapidFire was performed using a mobile phase A1 consisting of Water/TFA/FA (100:0.01:0.1, v/v/v), a mobile phase B1 consisting of ACN/Water/TFA/FA (80:20:0.01:0.1, v/v/v). […] The samples were aspirated directly from the 384-well assay plate and delivered onto RF-MS microscale solid-phase C4 extraction cartridge (Type A). The undesired component such as salt, cofactor, detergent and large protein were washed out and the retained analytes (substrate, product and IS) were coeluted directly onto the AB Siex Qtrap 4000 system.

The next data set concerns the target JAK3-JH1JH2 (Homo sapiens (Human), UniProt P52333). Briefly: Enzymatic inhibition assay (HTMS). Format: biochemical. The settings on record: 150 μM ATP; read-out: JAK3_I_JH1JH2 IC50.
From the text: as §1, §2, §3, §4

A further data set concerns the target JAK2-JH1JH2 (Homo sapiens (Human), UniProt O60674). Put plainly: Enzymatic inhibition assay (HTMS). Format: biochemical. The settings on record: read-out: JAK2_I_JH1JH2 IC50.
From the text: as §1, §2, §3, §4

Another data set has as its target JAK1-JH1JH2 (Homo sapiens (Human), UniProt P23458). Put plainly: Enzymatic inhibition assay (HTMS). The format is biochemical.
From the text: as §1, §2, §3, §4

A short description of the next data set: physchem. The settings on record: thermodynamic from solid.
A further data set has as its system P-gp (MDR1). Put plainly: MDCK-MDR1 permeability assay. Format: in vitro ADME. To be noted: dog.
The test system of a further data set is MDCK-MDR1 cell line. Briefly: MDCK-MDR1 permeability assay. The format is in vitro ADME. To be noted: @ 5 μM, apical to basolateral, with P-gp inhibitor elacridar (2 μM).

JAK1-JH1JH2, sequence (P23458 574-1154): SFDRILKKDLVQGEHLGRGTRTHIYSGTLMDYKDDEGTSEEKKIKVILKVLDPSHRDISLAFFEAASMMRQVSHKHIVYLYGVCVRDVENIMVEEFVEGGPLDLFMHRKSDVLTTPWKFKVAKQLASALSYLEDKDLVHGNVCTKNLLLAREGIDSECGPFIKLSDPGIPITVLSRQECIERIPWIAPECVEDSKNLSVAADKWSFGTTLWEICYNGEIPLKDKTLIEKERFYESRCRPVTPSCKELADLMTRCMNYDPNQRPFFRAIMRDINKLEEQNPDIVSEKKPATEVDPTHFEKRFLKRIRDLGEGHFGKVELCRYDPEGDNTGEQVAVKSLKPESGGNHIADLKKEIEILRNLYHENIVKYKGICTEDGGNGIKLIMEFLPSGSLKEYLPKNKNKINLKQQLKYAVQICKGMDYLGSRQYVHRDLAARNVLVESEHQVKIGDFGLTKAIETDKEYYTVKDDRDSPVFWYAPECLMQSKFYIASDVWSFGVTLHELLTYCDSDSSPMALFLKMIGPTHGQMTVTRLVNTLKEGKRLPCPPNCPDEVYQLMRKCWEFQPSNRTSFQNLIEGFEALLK

As to `CC(C)(O)CNC(=O)Cc1nc2cnc3[nH]ccc3c2n1[C@H]1CC[C@H](CC#N)CC1` [Embodiment 6], the “physical stability of solid form after AAC” value in data set [1] is “stable solid form”.
In general, IC50 refers to the concentration that inhibits the measured activity by half. The solubility is the concentration that dissolves in the medium under given conditions. Low values mean a poorly soluble substance, high ones a readily soluble substance. One may read the Papp A→B as how fast a substance crosses the layer from the apical side. As a reminder, the Papp B→A is how fast a substance crosses the layer from the basolateral side. For the compound `C[C@@H](O)c1nc2cnc3[nH]ccc3c2n1[C@H]1CC[C@H](CC#N)CC1` [C, reference compound], the “Plasma Concentration After p.o. Dosing, Mean” value in data set [2] (Time = 0.5 h) is given as […]; in [2] (Time = 2 h) it was […]; in data set [2] (Time = 4 h), […]. Further, the “Colon Concentration After p.o. Dosing, Mean” value in data set [2] (Time = 4 h) amounted to […]. Moreover, the IC50 on Tyk2-JH1JH2 is 0.2 nM; on JAK3-JH1JH2 it was […]; on JAK2-JH1JH2 it was […]; against JAK1-JH1JH2 it was less than 0.2 nM. The solubility in the data set “physchem” (pH 6.5, fassif) was more than 400 µM; in the data set “physchem” (simulated gastric fluid) it was more than 400 µM. Besides, the apparent permeability from apical to basolateral (Papp A→B) at 60 min, 5 μM with P-gp (MDR1) (MDCK-MDR1, pH 7.4, @ 5 μM, apical to basolateral, without elacridar, read-out: MDCK-MDR1 Papp(A-B)) turned out to be […]. The same compound returned a Papp B→A at 60 min, 5 μM with P-gp (MDR1) (MDCK-MDR1, pH 7.4, @ 5 μM, basolateral to apical) of […]. In addition, the “MDCK-MDR1 P^eapp(A-B)” value in the data set with MDCK-MDR1 cell line is […].
With `CC(C)(O)CNC(=O)Cc1nc2cnc3[nH]ccc3c2n1[C@H]1CC[C@H](CC#N)CC1` [embodiment 10], in data set [1], the “physical stability of solid form” value was “physically not stable”.
On to `CC(C)(O)CNC(=O)Cc1nc2cnc3[nH]ccc3c2n1[C@H]1CC[C@H](CC#N)CC1` [Embodiment 7], for which the “physical stability of solid form after AAC” value in [1] is “physically stable”.
In the case of `CC(C)(O)CNC(=O)Cc1nc2cnc3[nH]ccc3c2n1[C@H]1CC[C@H](CC#N)CC1` [embodiment 1s], the “physical stability of solid form in climate chamber” value in [1] (25° C. and 100% relative humidity) was “conversion of embodiment 1s into embodiment 10”; in data set [1] (40° C. and 70% relative humidity), “initial embodiment 1s had been recovered”.
As to `CC(C)(O)CNC(=O)Cc1nc2cnc3[nH]ccc3c2n1[C@H]1CC[C@H](CC#N)CC1` [embodiment 2], in data set [1], the “physical stability of solid form after AAC” value is on record as “converted to embodiment 3e”.
With `CC(C)(O)CNC(=O)Cc1nc2cnc3[nH]ccc3c2n1[C@H]1CC[C@H](CC#N)CC1` [Embodiment 5], the “physical stability of solid form after AAC” value in data set [1] is listed as “physically unstable”.
In the case of `CC(C)(O)CNC(=O)Cc1nc2cnc3[nH]ccc3c2n1[C@H]1CC[C@H](CC#N)CC1` [Embodiment 4], the “physical stability of solid form” value in data set [1] is “did not appear to be physically stable”.

(Values after patent publication US10294226B2, “Small molecule inhibitors of the JAK family of kinases” (Janssen Pharmaceutica NV, priority 2016, dated 2019).)
